{"source": "ChEMBL document CHEMBL1221220", "about": "“Transport and signaling via the amino acid binding site of the yeast Gap1 amino acid transceptor” (Nat Chem Biol, 2009)", "key": {"[1]": {"system": "T1, General amino-acid permease GAP1 (Saccharomyces cerevisiae), P19145 [A385C]", "T1 sequence (whole entry)": "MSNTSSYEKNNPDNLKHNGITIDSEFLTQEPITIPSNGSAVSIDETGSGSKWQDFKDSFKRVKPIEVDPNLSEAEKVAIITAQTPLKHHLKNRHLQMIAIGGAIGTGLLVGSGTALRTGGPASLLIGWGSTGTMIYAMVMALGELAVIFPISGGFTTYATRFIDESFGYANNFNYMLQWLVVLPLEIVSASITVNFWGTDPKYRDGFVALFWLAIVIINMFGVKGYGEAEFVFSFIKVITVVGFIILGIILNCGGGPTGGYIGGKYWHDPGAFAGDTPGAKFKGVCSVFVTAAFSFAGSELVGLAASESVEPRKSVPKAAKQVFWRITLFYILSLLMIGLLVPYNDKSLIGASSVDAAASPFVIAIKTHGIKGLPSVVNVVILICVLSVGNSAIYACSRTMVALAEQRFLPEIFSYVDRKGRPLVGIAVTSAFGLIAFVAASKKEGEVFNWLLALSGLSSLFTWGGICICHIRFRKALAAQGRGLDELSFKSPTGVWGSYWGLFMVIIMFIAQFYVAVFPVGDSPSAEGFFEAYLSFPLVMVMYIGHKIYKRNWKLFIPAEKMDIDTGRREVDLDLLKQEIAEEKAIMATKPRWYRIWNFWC", "assay": "Induction of yeast Gap1 A385C mutant-mediated […] activation at 2 mM in presence of 10 mM MTSEA treated before compound addition"}, "[2]": {"system": "General amino-acid permease GAP1 (Saccharomyces cerevisiae), P19145 [Y395C]", "sequence (P19145 whole entry Y395C)": "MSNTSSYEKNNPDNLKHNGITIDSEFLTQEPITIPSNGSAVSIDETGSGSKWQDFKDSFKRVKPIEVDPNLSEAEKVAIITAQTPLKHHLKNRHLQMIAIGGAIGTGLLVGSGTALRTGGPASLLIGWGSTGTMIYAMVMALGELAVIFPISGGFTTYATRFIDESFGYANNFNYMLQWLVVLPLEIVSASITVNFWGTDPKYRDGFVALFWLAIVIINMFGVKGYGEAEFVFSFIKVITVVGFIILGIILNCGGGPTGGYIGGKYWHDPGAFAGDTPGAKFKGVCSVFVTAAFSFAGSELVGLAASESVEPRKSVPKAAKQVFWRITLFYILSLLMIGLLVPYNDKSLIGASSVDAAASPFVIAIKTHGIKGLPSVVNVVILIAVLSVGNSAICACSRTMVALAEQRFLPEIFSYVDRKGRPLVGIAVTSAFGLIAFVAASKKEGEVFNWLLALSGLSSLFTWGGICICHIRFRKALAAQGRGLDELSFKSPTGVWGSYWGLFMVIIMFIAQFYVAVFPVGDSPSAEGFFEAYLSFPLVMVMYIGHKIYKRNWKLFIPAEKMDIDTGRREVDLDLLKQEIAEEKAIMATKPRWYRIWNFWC", "assay": "Inhibition of yeast Gap1 Y395C mutant-mediated amino acid uptake at 10 mM"}, "[3]": {"system": "T2, General amino-acid permease GAP1 (Saccharomyces cerevisiae), P19145 [V381C]", "T2 sequence (whole entry)": "T1 sequence (whole entry) with V381C, C385A", "assay": "Induction of yeast Gap1 V381C mutant-mediated trehalose activation at 2 mM in presence of 10 mM MTSEA treated before compound addition"}, "[4]": {"system": "General amino-acid permease GAP1 (Saccharomyces cerevisiae), P19145 [S388C]", "sequence (P19145 whole entry S388C)": "as the sequence (P19145 whole entry Y395C) above, with S388C, C395Y counted along it", "assay": "Induction of yeast Gap1 S388C mutant-mediated amino acid uptake at 2 mM in presence of 10 mM MTSEA treated before compound addition"}, "[5]": {"system": "T3, General amino-acid permease GAP1 (Saccharomyces cerevisiae), P19145 [L383C]", "T3 sequence (whole entry)": "T1 sequence (whole entry) with L383C, C385A", "assay": "Activation of yeast Gap1 L383C mutant-mediated amino acid uptake at 10 mM"}, "[6]": {"system": "T2, General amino-acid permease GAP1 (Saccharomyces cerevisiae), P19145 [V381C]", "assay": "Activation of yeast Gap1 V381C mutant-mediated amino acid uptake at 10 mM"}, "[7]": {"system": "T4, General amino-acid permease GAP1 (Saccharomyces cerevisiae), P19145 [T400C]", "T4 sequence (whole entry)": "T1 sequence (whole entry) with C385A, T400C", "assay": "Induction of yeast Gap1 T400C mutant-mediated amino acid uptake at 2 mM in presence of 10 mM MTSEA treated before compound addition"}}, "note": "Where a chain is given by its changes, count along the chain named. The source made the active and inactive calls. The rule behind the calls is not given here.", "data": [{"smiles": "NC(=O)NCCC[C@H](N)C(=O)O", "values": [{"measurement": "inhibition", "setting": "[1]", "result": "Active"}, {"measurement": "inhibition", "setting": "[2]", "result": "Active"}, {"measurement": "inhibition", "setting": "[3]", "result": "Active"}, {"measurement": "inhibition", "setting": "[4]", "result": "inactive"}, {"measurement": "Activity", "setting": "[5]", "result": "inactive"}, {"measurement": "Activity", "setting": "[6]", "result": "inactive"}, {"measurement": "Activity", "setting": "[7]", "result": "Active"}]}]}
